# Source: ChEMBL document CHEMBL1201862, “PubChem BioAssay data set” (2004)
# Active and inactive are the calls of the source.
# How the values were obtained:
# BJ [1] = experiment: BJ-TERT fibroblast viability loss – cell-based, RAS-independent, luminescence, dose response (AID 1933); assay type: functional; details: Homo sapiens
# BJ [2] = experiment: BJ-TERT-LT-ST fibroblast viability loss – cell-based, RAS-independent, luminescence, dose response (AID 1935); assay type: functional; details: Homo sapiens;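 note: BJ fibroblasts immortalized with TERT plus LT and ST oncogenes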
# BJ [3] = experiment: cells; assay type: functional, cell-based; details: Homo sapiens
# [4] = DRD fibroblast viability loss – cell-based, non-viral oncogenic, luminescence, dose response (AID 1934); assay type: functional; details: Homo sapiens
# cells = assay type: functional
# [5] = molecular target: T1, Short transient receptor potential channel 4 (Mus musculus, UniProt Q9QUQ5); experiment: block of DAMGO-driven TRPC4 calcium entry – cell-based, HEK293 TRPC4/mu-opioid, Fluo-4 calcium, dose response (AID 434942); assay type: functional;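 note: potency of inhibitors blocking the TRPC4 calcium response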
# T1 sequence (Q9QUQ5 whole entry): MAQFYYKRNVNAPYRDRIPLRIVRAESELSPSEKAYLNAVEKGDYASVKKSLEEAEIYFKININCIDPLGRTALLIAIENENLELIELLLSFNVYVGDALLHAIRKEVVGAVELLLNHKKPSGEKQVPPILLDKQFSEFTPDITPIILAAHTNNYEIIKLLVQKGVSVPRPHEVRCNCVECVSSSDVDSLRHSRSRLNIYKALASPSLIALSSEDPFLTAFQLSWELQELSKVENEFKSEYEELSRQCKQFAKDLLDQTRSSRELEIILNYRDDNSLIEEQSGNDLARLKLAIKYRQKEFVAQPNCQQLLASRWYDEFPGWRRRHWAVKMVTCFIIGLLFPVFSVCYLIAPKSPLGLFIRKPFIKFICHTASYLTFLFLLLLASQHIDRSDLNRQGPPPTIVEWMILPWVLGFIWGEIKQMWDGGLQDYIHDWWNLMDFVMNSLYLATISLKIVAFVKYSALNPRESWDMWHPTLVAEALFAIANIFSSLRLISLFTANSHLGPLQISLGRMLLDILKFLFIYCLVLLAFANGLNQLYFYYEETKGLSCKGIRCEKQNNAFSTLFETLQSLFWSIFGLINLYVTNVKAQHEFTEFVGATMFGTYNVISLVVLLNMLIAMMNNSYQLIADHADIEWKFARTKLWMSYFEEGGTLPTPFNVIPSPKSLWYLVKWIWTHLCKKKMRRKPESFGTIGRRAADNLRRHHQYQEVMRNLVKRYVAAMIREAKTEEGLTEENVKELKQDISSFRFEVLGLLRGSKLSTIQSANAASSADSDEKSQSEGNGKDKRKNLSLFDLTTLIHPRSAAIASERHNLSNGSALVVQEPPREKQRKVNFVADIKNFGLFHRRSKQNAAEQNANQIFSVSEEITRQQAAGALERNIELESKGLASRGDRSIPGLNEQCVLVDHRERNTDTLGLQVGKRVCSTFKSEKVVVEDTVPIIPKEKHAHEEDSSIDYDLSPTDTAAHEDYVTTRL
# [6] = Vero E6 cell cytotoxicity, dose response, cytotoxicity control for non-replicating M. tuberculosis project, secondary assay (AID 492998); assay type: functional, VeroE6; details: Vero C1008
# [7] = HepG2 cell cytotoxicity, dose response, cytotoxicity control for non-replicating M. tuberculosis project (AID 489018); assay type: functional; details: Mycobacterium tuberculosis
# [8] = THP-1 cell cytotoxicity, dose response, cytotoxicity control for non-replicating M. tuberculosis project (AID 489025); assay type: functional
# [9] = molecular target: Heat shock protein HSP 90-alpha (Homo sapiens, UniProt P07900); assay type: functional, organism-based
# [10] = test system: Streptococcus sp. 'group A'; experiment: Streptococcus pyogenes SK(-)GAS viability under kanamycin – luminescence, BacTiterGlo, confirmation, counter-screen for streptokinase expression inhibitor project, dose response (AID 1900); assay type: functional, organism-based
# [11] = Luminescence Cell-Based Dose Retest to Confirm Inhibitors of Cancer Stem Cells. [Related pubchem assays (depositor defined):AID2717, AID2721]; assay type: functional; details: Homo sapiens
# Cytochrome P450 2C9 = Cytochrome P450 2C9 (Homo sapiens, UniProt P11712)
# Sequence of Cytochrome P450 2C9 (P11712 whole entry): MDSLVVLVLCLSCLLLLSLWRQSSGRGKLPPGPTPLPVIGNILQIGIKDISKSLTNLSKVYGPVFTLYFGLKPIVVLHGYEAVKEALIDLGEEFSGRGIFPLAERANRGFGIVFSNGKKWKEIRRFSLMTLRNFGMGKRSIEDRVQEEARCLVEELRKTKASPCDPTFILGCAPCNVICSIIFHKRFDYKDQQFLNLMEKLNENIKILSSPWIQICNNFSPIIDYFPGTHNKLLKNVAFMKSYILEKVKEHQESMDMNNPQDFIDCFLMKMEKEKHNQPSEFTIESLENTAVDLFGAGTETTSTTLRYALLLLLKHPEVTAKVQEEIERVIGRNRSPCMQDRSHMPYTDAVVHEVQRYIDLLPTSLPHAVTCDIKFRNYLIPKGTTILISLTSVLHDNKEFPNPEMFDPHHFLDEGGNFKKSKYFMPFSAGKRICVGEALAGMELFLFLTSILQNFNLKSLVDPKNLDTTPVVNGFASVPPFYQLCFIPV
# Cytochrome P450 2C19 = Cytochrome P450 2C19 (Homo sapiens, UniProt P33261); experiment: Cytochrome panel assay with activity outcomes. Panel member name: p450-cyp2c19 Compounds with AC50 equal or less than 10 uM are considered active; assay type: functional; details: read-out: AC50
# Sequence of Cytochrome P450 2C19 (P33261 whole entry): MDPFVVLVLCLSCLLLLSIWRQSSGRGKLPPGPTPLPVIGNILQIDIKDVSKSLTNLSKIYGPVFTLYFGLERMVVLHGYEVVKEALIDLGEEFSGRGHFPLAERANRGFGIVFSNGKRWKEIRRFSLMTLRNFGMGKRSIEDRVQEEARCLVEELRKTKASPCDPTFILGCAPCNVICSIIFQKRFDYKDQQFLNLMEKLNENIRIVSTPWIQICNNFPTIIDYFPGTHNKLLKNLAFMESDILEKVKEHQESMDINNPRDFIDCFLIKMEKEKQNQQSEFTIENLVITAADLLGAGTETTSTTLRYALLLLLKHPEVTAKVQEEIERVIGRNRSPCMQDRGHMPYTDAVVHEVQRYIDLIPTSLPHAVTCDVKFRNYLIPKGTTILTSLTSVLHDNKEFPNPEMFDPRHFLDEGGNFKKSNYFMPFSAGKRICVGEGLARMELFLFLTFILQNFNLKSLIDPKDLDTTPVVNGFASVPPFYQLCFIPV
# Streptococcus = experiment: GAS UMAA2166 growth inhibition – luminescence, BacTiterGlo, counter-screen for streptokinase expression inhibitor project, dose response (AID 1915); assay type: functional, organism-based;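 note: potency for reduction of bacterial viability or growth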
# Cytochrome P450 3A4 = Cytochrome P450 3A4 (Homo sapiens, UniProt P08684);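 note: CYP3A4 tested as one member of a cytochrome P450 panel screen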
# Sequence of Cytochrome P450 3A4 (P08684 whole entry): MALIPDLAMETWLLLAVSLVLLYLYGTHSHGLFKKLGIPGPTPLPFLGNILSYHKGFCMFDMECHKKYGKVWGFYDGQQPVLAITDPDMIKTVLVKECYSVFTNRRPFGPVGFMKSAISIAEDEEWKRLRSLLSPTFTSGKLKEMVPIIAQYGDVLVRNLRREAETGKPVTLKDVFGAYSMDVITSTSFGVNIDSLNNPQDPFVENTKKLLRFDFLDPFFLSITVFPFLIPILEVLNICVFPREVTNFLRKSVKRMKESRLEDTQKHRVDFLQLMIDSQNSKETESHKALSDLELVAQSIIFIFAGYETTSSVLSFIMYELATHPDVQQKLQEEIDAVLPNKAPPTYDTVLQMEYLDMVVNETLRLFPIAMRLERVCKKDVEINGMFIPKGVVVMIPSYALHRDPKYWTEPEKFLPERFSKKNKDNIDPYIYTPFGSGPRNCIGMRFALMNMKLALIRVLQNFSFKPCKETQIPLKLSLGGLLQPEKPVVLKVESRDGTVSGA
# Vero = experiment: cells; assay type: functional; details: Chlorocebus sabaeus
# Leucine aminopeptidase = molecular target: T2, Leucine aminopeptidase (Plasmodium falciparum 3D7, UniProt Q8IL11); experiment: P. falciparum M17LAP inhibitors, primary screen, biochemical, fluorogenic H-Leu-NHMec substrate, 1536-well (AID 1619); assay type: functional
# T2 sequence (Q8IL11 whole entry): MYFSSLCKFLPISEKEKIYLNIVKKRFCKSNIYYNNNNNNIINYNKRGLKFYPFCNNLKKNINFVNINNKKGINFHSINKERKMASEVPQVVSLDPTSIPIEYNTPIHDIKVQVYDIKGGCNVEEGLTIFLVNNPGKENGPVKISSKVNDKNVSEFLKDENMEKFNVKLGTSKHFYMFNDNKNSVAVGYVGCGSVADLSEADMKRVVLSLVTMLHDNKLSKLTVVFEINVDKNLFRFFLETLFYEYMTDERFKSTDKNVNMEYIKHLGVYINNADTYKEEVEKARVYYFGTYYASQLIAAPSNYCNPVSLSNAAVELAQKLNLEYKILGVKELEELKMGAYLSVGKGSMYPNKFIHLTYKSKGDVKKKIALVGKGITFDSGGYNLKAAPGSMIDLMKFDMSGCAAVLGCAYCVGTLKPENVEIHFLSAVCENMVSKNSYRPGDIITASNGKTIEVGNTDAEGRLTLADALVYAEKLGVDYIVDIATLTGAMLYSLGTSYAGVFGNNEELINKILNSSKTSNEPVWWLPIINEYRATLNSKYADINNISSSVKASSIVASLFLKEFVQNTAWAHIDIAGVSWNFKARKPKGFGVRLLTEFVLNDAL
# Genome polyprotein = Genome polyprotein (dengue virus type 2, UniProt P29990); experiment: flavivirus cap methylation enzyme inhibition – biochemical, confirmation dose response, primary screen (AID 588689); assay type: functional
# Sequence of Genome polyprotein (P29990 2492-3391 limits assumed): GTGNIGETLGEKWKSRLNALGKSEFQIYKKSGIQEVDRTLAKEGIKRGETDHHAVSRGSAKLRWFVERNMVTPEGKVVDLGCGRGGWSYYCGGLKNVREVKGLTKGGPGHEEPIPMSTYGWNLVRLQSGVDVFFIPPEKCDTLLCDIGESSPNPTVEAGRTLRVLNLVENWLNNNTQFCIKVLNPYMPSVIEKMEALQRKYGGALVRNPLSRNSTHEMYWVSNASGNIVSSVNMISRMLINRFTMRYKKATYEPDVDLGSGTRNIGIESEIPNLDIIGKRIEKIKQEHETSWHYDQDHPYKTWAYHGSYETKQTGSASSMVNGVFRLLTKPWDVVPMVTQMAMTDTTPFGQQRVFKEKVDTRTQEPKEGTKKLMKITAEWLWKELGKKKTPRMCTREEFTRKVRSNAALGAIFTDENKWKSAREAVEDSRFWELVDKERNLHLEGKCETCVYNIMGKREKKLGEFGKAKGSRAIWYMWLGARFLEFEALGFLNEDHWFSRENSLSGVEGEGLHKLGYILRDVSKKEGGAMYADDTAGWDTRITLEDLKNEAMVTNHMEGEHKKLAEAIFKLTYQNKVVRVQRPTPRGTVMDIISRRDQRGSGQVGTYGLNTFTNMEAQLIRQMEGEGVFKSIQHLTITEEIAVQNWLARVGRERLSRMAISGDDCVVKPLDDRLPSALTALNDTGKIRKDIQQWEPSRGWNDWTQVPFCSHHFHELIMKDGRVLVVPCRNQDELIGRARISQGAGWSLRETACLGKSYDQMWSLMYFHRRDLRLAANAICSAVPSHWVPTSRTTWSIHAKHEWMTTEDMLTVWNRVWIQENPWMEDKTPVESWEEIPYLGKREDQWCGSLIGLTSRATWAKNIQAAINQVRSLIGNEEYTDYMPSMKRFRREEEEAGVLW
# [12] = molecular target: FAD-linked sulfhydryl oxidase ALR (Homo sapiens, UniProt P55789); experiment: ALR-catalysed DTT oxidation blockers – biochemical, H2O2 detection, luminescence, cherry-pick, dose response (AID 493248)
# Sequence of FAD-linked sulfhydryl oxidase ALR (P55789 whole entry): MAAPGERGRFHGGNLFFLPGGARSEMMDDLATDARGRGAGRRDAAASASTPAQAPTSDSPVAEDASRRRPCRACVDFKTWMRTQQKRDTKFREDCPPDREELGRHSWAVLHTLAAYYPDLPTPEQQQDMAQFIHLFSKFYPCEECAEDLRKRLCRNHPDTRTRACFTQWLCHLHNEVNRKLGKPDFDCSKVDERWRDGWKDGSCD
# Streptokinase A = molecular target: T3, Streptokinase A (Streptococcus pyogenes serotype M1, UniProt P10520); experiment: viability-normalized secreted streptokinase activity reduction – plasminogen activation absorbance, OD405, dose response (AID 1914); assay type: functional, Streptococcus pyogenes M1 GAS;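 note: secreted streptokinase activity via plasminogen activation per viability signal from cell pellet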
# T3 sequence (P10520 whole entry): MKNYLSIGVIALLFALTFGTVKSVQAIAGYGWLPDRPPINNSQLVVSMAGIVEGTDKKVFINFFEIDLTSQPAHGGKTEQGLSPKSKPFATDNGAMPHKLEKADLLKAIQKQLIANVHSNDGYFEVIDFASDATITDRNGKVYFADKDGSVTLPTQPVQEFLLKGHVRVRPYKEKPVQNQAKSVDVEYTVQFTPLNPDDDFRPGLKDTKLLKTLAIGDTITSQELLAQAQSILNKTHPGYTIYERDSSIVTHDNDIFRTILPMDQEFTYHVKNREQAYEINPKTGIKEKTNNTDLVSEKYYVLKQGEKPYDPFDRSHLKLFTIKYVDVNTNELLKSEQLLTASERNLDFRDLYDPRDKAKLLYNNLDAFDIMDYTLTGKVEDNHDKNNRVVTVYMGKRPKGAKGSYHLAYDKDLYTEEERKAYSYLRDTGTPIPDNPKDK
# Fatty acid synthase [13] = molecular target: T4, Fatty acid synthase (Homo sapiens, UniProt P49327); experiment: inhibition of human FAS-TE enzyme activity – biochemical, endpoint fluorescence intensity, uHTS hits, dose response (AID 624327); assay type: functional;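 note: fluorescence from hydrolysis of an O-methyl fluorescein acyl ester substrate by the enzyme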
# T4 sequence (P49327 whole entry): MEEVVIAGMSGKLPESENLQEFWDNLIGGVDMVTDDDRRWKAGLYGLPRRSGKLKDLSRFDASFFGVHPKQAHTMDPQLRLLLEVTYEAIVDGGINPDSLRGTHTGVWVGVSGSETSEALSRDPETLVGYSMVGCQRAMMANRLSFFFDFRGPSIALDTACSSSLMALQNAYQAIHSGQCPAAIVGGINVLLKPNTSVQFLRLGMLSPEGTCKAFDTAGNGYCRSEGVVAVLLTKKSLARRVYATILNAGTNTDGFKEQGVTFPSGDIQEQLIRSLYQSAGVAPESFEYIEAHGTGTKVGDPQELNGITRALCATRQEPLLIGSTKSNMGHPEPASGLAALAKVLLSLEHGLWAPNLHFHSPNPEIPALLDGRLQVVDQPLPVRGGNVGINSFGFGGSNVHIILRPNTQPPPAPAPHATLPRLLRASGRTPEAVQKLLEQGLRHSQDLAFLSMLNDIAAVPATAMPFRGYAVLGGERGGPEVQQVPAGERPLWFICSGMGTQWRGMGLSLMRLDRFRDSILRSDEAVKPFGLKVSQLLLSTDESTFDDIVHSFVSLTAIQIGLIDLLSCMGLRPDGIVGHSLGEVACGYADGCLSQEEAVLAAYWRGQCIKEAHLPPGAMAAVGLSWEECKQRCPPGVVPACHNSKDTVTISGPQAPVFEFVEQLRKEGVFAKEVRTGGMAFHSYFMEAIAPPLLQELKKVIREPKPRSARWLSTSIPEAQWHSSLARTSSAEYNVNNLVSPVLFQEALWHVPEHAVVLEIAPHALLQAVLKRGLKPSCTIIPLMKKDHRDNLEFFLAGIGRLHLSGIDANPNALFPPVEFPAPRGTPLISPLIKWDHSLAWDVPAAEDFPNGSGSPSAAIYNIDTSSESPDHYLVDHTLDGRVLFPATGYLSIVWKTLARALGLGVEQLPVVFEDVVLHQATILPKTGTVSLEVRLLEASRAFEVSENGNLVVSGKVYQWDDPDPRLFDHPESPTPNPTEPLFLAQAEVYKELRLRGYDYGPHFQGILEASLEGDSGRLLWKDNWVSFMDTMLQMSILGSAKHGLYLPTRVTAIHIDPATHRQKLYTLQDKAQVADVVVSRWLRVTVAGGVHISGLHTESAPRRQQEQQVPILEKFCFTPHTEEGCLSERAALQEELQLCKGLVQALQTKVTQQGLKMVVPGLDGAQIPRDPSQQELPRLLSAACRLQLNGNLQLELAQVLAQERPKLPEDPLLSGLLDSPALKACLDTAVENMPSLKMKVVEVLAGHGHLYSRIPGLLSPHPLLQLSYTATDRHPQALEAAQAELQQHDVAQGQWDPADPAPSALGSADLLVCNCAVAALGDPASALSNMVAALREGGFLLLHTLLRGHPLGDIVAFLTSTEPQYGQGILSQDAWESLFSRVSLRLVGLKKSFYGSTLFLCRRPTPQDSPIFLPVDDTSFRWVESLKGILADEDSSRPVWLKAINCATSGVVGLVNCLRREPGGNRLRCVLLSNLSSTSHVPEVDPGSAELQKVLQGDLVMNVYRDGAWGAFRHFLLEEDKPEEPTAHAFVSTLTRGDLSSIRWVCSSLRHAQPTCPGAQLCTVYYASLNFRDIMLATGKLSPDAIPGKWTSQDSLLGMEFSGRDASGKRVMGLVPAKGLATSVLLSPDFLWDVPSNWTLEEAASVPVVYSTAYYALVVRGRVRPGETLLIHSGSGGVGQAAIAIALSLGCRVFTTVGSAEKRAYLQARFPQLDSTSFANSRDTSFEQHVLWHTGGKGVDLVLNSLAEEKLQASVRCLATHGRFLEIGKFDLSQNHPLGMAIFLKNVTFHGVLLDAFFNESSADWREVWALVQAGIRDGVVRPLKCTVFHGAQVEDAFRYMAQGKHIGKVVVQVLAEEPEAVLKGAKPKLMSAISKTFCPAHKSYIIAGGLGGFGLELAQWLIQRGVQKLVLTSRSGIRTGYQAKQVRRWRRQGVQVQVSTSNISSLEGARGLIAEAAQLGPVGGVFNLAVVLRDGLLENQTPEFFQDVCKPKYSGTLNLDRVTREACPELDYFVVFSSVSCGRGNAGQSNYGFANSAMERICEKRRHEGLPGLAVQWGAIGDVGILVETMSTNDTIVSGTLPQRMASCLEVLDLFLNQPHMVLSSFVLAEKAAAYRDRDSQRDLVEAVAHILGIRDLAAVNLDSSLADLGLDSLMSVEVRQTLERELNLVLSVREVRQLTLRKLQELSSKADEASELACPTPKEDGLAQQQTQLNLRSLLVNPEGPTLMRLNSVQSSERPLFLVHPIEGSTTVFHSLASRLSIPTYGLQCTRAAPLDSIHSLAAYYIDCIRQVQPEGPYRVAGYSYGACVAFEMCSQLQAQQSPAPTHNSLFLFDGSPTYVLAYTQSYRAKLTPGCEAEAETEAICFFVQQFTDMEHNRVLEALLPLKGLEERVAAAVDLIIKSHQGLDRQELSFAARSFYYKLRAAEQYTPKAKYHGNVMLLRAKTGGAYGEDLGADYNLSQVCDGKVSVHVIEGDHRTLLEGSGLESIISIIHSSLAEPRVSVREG
# Fatty acid synthase [14] = molecular target: T4, Fatty acid synthase; experiment: inhibition of human FAS-TE enzyme activity – biochemical, kinetic fluorescence intensity, dose response (AID 624326); assay type: functional;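 note: rate of fluorescence rise from hydrolysis of a fluorogenic O-methyl fluorescein ester substrate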
# INS1 = experiment: INS-1E survival protection against cytokine death – cell-based, luminescence, retest, dose response (AID 449756); assay type: functional; details: Rattus norvegicus;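 note: cell death triggered by IL-1 beta plus TNF-alpha plus IFN-gamma mixture; protective hits raise ATP signal compared with cytokine alone wells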
smiles,measurement,setting,value
C=CCNC(=O)c1ccc(NC(=O)C2=CSCCO2)cc1,EC50,BJ [1],24.8 µM (active)
same,EC50,BJ [2],> 150 µM (not active)
same,EC50,BJ [3],111 µM (active)
same,EC50,[4],60.9 µM (active)
CCOC(=O)C1(CCc2ccccc2)CCN(Cc2ccccn2)CC1,IC50,cells,3.96 µM (active)
same,EC50,[5],4.22 µM (active)
CC(C)Sc1nc2sc3c(c2c2nnc(SCC(=O)NCc4ccco4)n12)CCCC3,EC50,[5],3.76 µM (active)
COc1ccc(C(=O)Oc2c(CN3CCOCC3)cc(Cl)c3cccnc23)cc1OC,IC50,cells,34.6 µM (active)
same,CC50,[6],8.82 µM (active)
same,CC50,[7],15 µM (active)
same,CC50,[8],12.2 µM (active)
Cn1ncc2c(Nc3cccc(Cl)c3)nc(Nc3cccc(Cl)c3)nc21,AC50,[9],4.31 µM (active)
same,EC50,[10],2.68 µM (active)
same,AC50,[11],2.88 µM (active)
same,AC50,Cytochrome P450 2C9,7.94 µM (inconclusive)
same,AC50,Cytochrome P450 2C19,3.16 µM (inconclusive)
same,EC50,Streptococcus,2.92 µM (active)
same,AC50,Cytochrome P450 3A4,6.31 µM (inconclusive)
Cc1ccc(OCC(=O)NNC(=S)NC(=O)c2ccc(Br)o2)c(C)c1,EC50,[10],< 0.06 µM (active)
same,EC50,[5],13.3 µM (active)
same,EC50,Streptococcus,1.33 µM (active)
same,CC50,Vero,> 25 µM (active)
CC1=C(C)CC(C(=O)Nc2cccc(Cl)c2)C(C(=O)O)C1 (stereo unspecified),IC50,Leucine aminopeptidase,2.38 µM (active)
COc1ccc(S(=O)(=O)NC2CC3CCC2C3)cc1Br (stereo unspecified),AC50,[9],5.25 µM (active)
COc1ccccc1N1C(=O)NC(=O)/C(=C/c2ccc3c(c2)Cc2ccccc2-3)C1=O,IC50,Genome polyprotein,59.4 µM (active)
CN1C(=O)/C(=C/c2cccc([N+](=O)[O-])c2)C(=O)N1c1ccccc1,IC50,Genome polyprotein,26.3 µM (active)
same,AC50,[12],0.533 µM (active)
Clc1ccc(Nc2nc[nH]n2)cc1,IC50,Leucine aminopeptidase,1.53 µM (active)
same,AC50,Cytochrome P450 2C19,14.1 µM (inconclusive)
same,AC50,Cytochrome P450 3A4,31.6 µM (inconclusive)
Oc1c2c(nc3c(-c4ccc(Cl)cc4)cnn13)CCC2,IC50,cells,12.2 µM (active)
same,EC50,[10],4.33 µM (active)
same,CC50,[6],10.7 µM (active)
same,CC50,[7],12.7 µM (active)
same,CC50,[8],5.23 µM (active)
same,EC50,Streptokinase A,> 150 µM (not active)
same,EC50,Streptococcus,12.3 µM (active)
Cc1ccc(S(=O)(=O)c2cnc(-c3ccccc3)nc2N2CCN(C)CC2)cc1,EC50,[5],6.68 µM (active)
O=C1Nc2ccc(F)cc2C12Nc1ccccc1-c1nnc(SCc3ccccc3)nc1O2 (stereo unspecified),IC50,Genome polyprotein,46.2 µM (active)
O=C(COC(=O)CC1CC2CCC1C2)Nc1cc([N+](=O)[O-])ccc1F (stereo unspecified),IC50,Fatty acid synthase [13],4.15 µM (active)
same,IC50,Fatty acid synthase [14],3.72 µM (active)
Cc1ccc(-n2c(SCC(=O)OC(C)C)nnc2-c2ccco2)cc1,IC50,Leucine aminopeptidase,31.2 µM (active)
CCOC(=O)/C(C#N)=C\C=C1C=CN(C)C=C1,IC50,Leucine aminopeptidase,90 µM (active)
CCc1nc2ccccc2n1Cc1ccccc1OC,EC50,[5],10.6 µM (active)
Cc1cccc(-c2cc3nc(C)c(C)c(NCCCn4ccnc4)n3n2)c1,IC50,cells,9.68 µM (active)
same,CC50,[6],> 20 µM (active)
same,CC50,[7],16.4 µM (active)
same,CC50,[8],20.6 µM (active)
Cc1ccccc1[N+]1=C2CCCCN2C(O)(c2cccs2)C1 (stereo unspecified),EC50,[5],2.37 µM (active)
O=C(CC1C[C@H](C(=O)N2CCOCC2)[C@@]2(CCC3CCCC3)c3[nH]c4ccccc4c3CCN2C1=O)NCCC1=CCCCC1 (stereo partly specified),IC50,Fatty acid synthase [13],22.2 µM (inactive)
same,IC50,Fatty acid synthase [14],35.1 µM (inactive)
Cc1ccc(C(=O)CN(CCC(=O)O)S(=O)(=O)c2ccc([N+](=O)[O-])cc2)cc1,IC50,Fatty acid synthase [13],5.88 µM (active)
same,IC50,Fatty acid synthase [14],3.55 µM (active)
C/C(=N\NC(=O)c1ccccc1NC(=O)c1ccc(Cl)cc1)c1ccncc1,EC50,BJ [1],0.856 µM (inconclusive)
same,EC50,BJ [2],2.18 µM (inconclusive)
same,AC50,INS1,0.902 µM (active)
same,EC50,BJ [3],1.21 µM (inconclusive)
same,EC50,[4],1.12 µM (active)
O=C(O)c1cccc(-c2ccc(/C=N/NC(=O)C3COc4ccccc4O3)o2)c1 (stereo unspecified),IC50,Leucine aminopeptidase,45.6 µM (active)
O=C(CCC(=O)Nc1cccc(Cl)c1)N/N=C/c1cc([N+](=O)[O-])ccc1O,IC50,Fatty acid synthase [13],4.21 µM (active)
same,IC50,Fatty acid synthase [14],5.71 µM (active)
